Here are results for 118 compounds from the SangsterLogP compilation.

The logP is the decadic logarithm of the partition coefficient of the neutral form, usually between octanol and water. A high value points to higher lipophilicity.

For the compound `O=C(O)COc1ccc(Cl)cc1Cl`, the logP was 2.66.

Compound `Cc1cccc2sc3nncn3c12` had a logP of 1.42.

Compound `COC(=O)c1ccccc1C(=O)OC` had a logP of 1.49.

Compound `Nc1ccc(Cl)c(Cl)c1` showed a log partition coefficient (logP) of 2.62.

Take `CC(C)(C)C(=O)C(Oc1ccc(Cl)cc1)n1cncn1` (stereo not drawn): the logP was 3.11.

As for `Fc1ccc(Oc2ccnc3cc(Cl)cc(Cl)c23)cc1`, the logP is 5.27.

Compound `c1ccc(Oc2ccccn2)cc1` had a logP of 2.36.

Consider `CCNc1nc(Cl)nc(NCC)n1`, for which the logP was 2.09.

Consider `c1ccc2[nH]cnc2c1`, for which the logP came out at 1.29.

The compound `COCC(=O)N(c1c(C)cccc1C)C(C)C(=O)OC` (stereo not drawn) gave a logP of 1.6.

Compound `CC(C)(C)C(O)(CCc1ccc(Cl)cc1)Cn1cncn1` (stereo not drawn) showed a logP of 3.59.

Regarding `O=[N+]([O-])c1ccc(Oc2ccccc2)cc1`, the logP was determined as 3.66.

With `Cc1ccc(CO)cc1`, the logP is 1.62.

`C[C@@H](Oc1ccc(Oc2ccc(C#N)cc2F)cc1)C(=O)O` gave a logP of 3.08.

Consider `CCOCn1c(-c2ccc(Cl)cc2)c(C#N)c(Br)c1C(F)(F)F`, for which the logP was 5.24.

The compound `CC(C)N(Cc1ccccc1)C(=O)C(C)(C)C` had a logP of 2.98.

Regarding `Cc1ccc(NC(=O)N(C)C)cc1Cl`, the lipophilicity (logP) turned out to be 2.43.

Consider `CC1(C)CCC(Cc2ccc(Cl)cc2)C1(O)Cn1cncn1` (stereo not drawn), for which the logP amounted to 3.82.

`Cc1cc(C)nc(NC(=O)NS(=O)(=O)c2ccccc2C(=O)OC2COC2)n1` showed a logP of 1.07.

Regarding `CS(=O)(=O)c1ccc(C(=O)C2C(=O)CCCC2=O)c(Cl)c1`, the lipophilicity (logP) is 1.2.

As to `CC(C)N1C(=O)c2ccccc2NS1(=O)=O`, the logP is 2.75.

Compound `Nc1cc(Cl)cc(Cl)c1` gave a log partition coefficient (logP) of 2.89.

With `CON(C(=O)c1cn(C)nc1C(F)F)C(C)Cc1c(Cl)cc(Cl)cc1Cl` (stereo not drawn), the lipophilicity (logP) is 3.77.

In the case of `c1ccc2[nH]ccc2c1`, the logP was 2.15.

Take `CN(C)C(=O)Nc1cc(C(C)(C)C)on1`: the logP came out at 1.91.

On to `Fc1ccc([C@@]2(Cn3cncn3)O[C@@H]2c2ccccc2Cl)cc1`, for which the logP came out at 3.3.

Regarding `CS(=O)(=O)c1ccccc1`, the logP turned out to be 0.51.

In the case of `CNC(=O)Oc1ccccc1OC(C)C`, the lipophilicity (logP) was found to be 1.55.

Regarding `CCOC(=O)c1cccnc1`, the logP was determined as 1.38.

Consider `COC(=O)c1ccccc1CS(=O)(=O)NC(=O)Nc1nc(OC)cc(OC)n1`, for which the logP was determined as 2.36.

In turn, `CCN1C(=O)C(=O)c2ccc(OC)cc2C1=O` registered a logP of 1.4.

With `CO/N=C(/C1=NOCCO1)c1ccccc1Oc1ncnc(Oc2ccccc2Cl)c1F`, the logP was determined as 2.95.

For the compound `c1ccc(-c2ccccn2)nc1`, the log partition coefficient (logP) was 1.72.

For the compound `N#Cc1c(Cl)c(Cl)c(Cl)c(C#N)c1Cl`, the logP is 2.93.

`C#CCOc1ccc(CCNC(=O)C(OCC#C)c2ccc(Cl)cc2)cc1OC` (stereo not drawn): the logP came out at 3.16.

Turning to `C#CC(C)(C)NC(=O)c1cc(Cl)cc(Cl)c1`, the logP was found to be 3.23.

The compound `COC(=O)C=Cc1ccccc1` gave a logP of 2.67.

The compound `COC(=O)C(C)N(C(=O)c1ccco1)c1c(C)cccc1C` (stereo not drawn) had a logP of 2.59.

As for `CCNc1nc(Cl)nc(NC(C)C)n1`, the log partition coefficient (logP) was 2.54.

As to `COC(=O)N(C(=O)N1CO[C@@]2(C(=O)OC)Cc3cc(Cl)ccc3C2=N1)c1ccc(OC(F)(F)F)cc1`, the logP came to 4.75.

Take `O=C(NCCc1ncc(C(F)(F)F)cc1Cl)c1ccccc1C(F)(F)F`: the log partition coefficient (logP) was found to be 3.26.

Consider `CCC(=O)c1ccccc1`, for which the logP is 2.16.

Take `c1ccc(Sc2ccccc2)cc1`: the logP came out at 4.43.

With `CS(=O)(=O)c1ccc(C(=O)C2C(=O)CCCC2=O)c(Cl)c1COCC(F)(F)F`, the logP was 2.15.

In the case of `CC(C)N(C)S(=O)(=O)NC(=O)c1cc(-n2c(=O)cc(C(F)(F)F)n(C)c2=O)c(F)cc1Cl`, the logP came out at 2.33.

`Cc1cc(Cl)ccc1OCC(=O)O` yielded a logP of 2.79.

For the compound `CC(C)CC(C)c1sccc1NC(=O)c1cn(C)nc1C(F)(F)F` (stereo not drawn), the logP was 3.96.

The compound `Cn1cc(C(=O)Nc2cccc3c2[C@@H]2CC[C@H]3C2=C(Cl)Cl)c(C(F)F)n1` displayed a lipophilicity (logP) of 4.34.

As to `CCCCOC(=O)C(C)Oc1ccc(Oc2ccc(C(F)(F)F)cn2)cc1` (stereo not drawn), the log partition coefficient (logP) was found to be 5.01.

Compound `CCCCc1c(C)nc(NCC)[nH]c1=O` registered a logP of 2.23.

Compound `CCOc1cc(Oc2ccc(C(F)(F)F)cc2Cl)ccc1[N+](=O)[O-]` gave a logP of 5.19.

`CCSC(=O)N(CC(C)C)CC(C)C` had a lipophilicity (logP) of 4.1.

`C=CCN(CC=C)C(=O)C(Cl)Cl` showed a logP of 1.77.

With `CCON=C(CC)C1=C(O)CC(c2c(C)cc(C)cc2C)CC1=O` (stereo not drawn), the logP stood at 4.77.

In the case of `FC(F)C(F)(F)OCC(Cn1cncn1)c1ccc(Cl)cc1Cl` (stereo not drawn), the logP is 3.49.

`CNC(=O)Nc1ccc(S(=O)(=O)NC(=O)c2ccccc2OC)cc1`: the logP worked out at 1.95.

Take `Nc1ccc(C(F)(F)F)cc1`: the logP was determined as 2.31.

As for `CCCCC(C#N)(Cn1cncn1)c1ccc(Cl)cc1` (stereo not drawn), the logP is 3.06.

For the compound `CCCOC(=O)C(C)Oc1ccc(Oc2ccc(C(F)(F)F)cn2)cc1` (stereo not drawn), the logP was 4.44.

Consider `CN(C)C(=O)Nc1ccc(Cl)c(Cl)c1`, for which the logP turned out to be 2.74.

Consider `CC(C)Oc1cccc(NC(=O)c2ccccc2C(F)(F)F)c1`, for which the logP came out at 3.59.

`O=[N+]([O-])C=C1CCCN1Cc1ccc(Cl)nc1` yielded a logP of 0.7.

`Oc1cccc2cccnc12` displayed a log partition coefficient (logP) of 1.93.

As to `COC(=O)c1ccc(Cl)cc1`, the lipophilicity (logP) amounted to 2.81.

In turn, `CCCC1COC(Cn2cncn2)(c2ccc(Cl)cc2Cl)O1` (stereo not drawn) yielded a logP of 3.57.

For `CCc1cccc(C)c1N(C(=O)CCl)C(C)COC` (stereo not drawn), the logP turned out to be 3.01.

Consider `CC(C)N(C(=O)CCl)c1ccccc1`, for which the logP was determined as 2.12.

`COc1nc(C)nc(NC(=O)NS(=O)(=O)c2ccccc2OCCCl)n1` registered a logP of 1.72.

`CCCCOC(=O)c1ccccc1C(=O)OCCCC` showed a lipophilicity (logP) of 4.46.

`O=c1c2cc(F)ccc2nc(-n2cncn2)n1-c1ccc(Cl)cc1Cl` returned a logP of 3.21.

In the case of `COP(=S)(OC)SCN1C(=O)c2ccccc2C1=O`, the logP was 2.71.

Turning to `Cc1nc(N(C)C)nc(OC(=O)N(C)C)c1C`, the logP stood at 1.75.

In the case of `Cc1cc(C)nc(Nc2ccccc2)n1`, the logP came to 2.84.

`COC(=O)Cc1ccccc1` had a logP of 1.75.

As for `CC(C1CC1)C(O)(Cn1cncn1)c1ccc(Cl)cc1` (stereo not drawn), the logP worked out at 2.99.

The compound `N#Cc1c[nH]cc1-c1cccc2c1OC(F)(F)O2` had a logP of 4.16.

Compound `N#Cc1cc(Br)c(O)c(Br)c1` yielded a logP of 2.9.

The compound `OC(Cn1cncn1)(c1ccc(F)cc1)c1ccccc1F` (stereo not drawn) gave a logP of 2.26.

As for `N#Cc1cnc2ccccc2c1`, the logP turned out to be 1.64.

As to `O=[N+]([O-])c1ccccc1`, the logP came out at 1.79.

The compound `CC(=O)Nc1ccccc1C(F)(F)F` yielded a lipophilicity (logP) of 1.14.

Turning to `COc1nc(C)nc(NC(=O)NS(=O)(=O)c2ccccc2CCC(F)(F)F)n1`, the lipophilicity (logP) is 2.87.

Compound `C[Si](Cn1cncn1)(c1ccc(F)cc1)c1ccc(F)cc1` yielded a lipophilicity (logP) of 3.76.

For the compound `c1ccc(-c2ccncn2)cc1`, the lipophilicity (logP) stood at 1.9.

In turn, `O=C(CCl)Nc1ccccc1` displayed a logP of 1.54.

The compound `Cc1[nH]n(C)c(=O)c1C(=O)c1ccc(C(F)(F)F)cc1S(C)(=O)=O` came in with a logP of 0.63.

In the case of `CC(C)(C)[C@H](O)[C@H](Cc1ccc(Cl)cc1)n1cncn1`, the logP stood at 3.09.

Take `CCCCCOC(=O)C(C)Oc1ccc(Oc2ccc(C(F)(F)F)cn2)cc1` (stereo not drawn): the logP is 5.6.

For the compound `N#CN=C1SCCN1Cc1ccc(Cl)nc1`, the logP was determined as 1.26.

`CNC(=O)Oc1cccc2c1OC(C)(C)C2`: the logP was determined as 1.59.

For `c1ccc(-c2ccc(C(c3ccccc3)n3ccnc3)cc2)cc1` (stereo not drawn), the logP was 5.12.

The compound `COC(=O)C(C)Oc1ccc(Oc2ccc(Cl)cc2Cl)cc1` (stereo not drawn) showed a logP of 4.89.

`CCCCn1nnc2ccccc21`: the log partition coefficient (logP) is 2.52.

In turn, `CCCCC(O)(Cn1cncn1)c1ccc(Cl)cc1Cl` (stereo not drawn) came in with a logP of 3.8.

In the case of `Cc1cc(C2CC2)nc(Nc2ccccc2)n1`, the logP is 3.91.

As for `CSc1nnc(C(C)(C)C)c(=O)n1N`, the logP worked out at 1.61.

In the case of `CNC(=O)Nc1ccc(C(=O)O)cc1`, the logP came to 1.16.

Regarding `c1ccc(-c2ccccc2)cc1`, the lipophilicity (logP) turned out to be 3.96.

As for `CCOC(=O)c1ccc([N+](=O)[O-])cc1`, the logP stood at 2.43.

On to `CCOC(=O)C1CC(=O)C(=C(O)C2CC2)C(=O)C1` (stereo not drawn), for which the logP is 2.02.

As for `COC(=O)c1ccccc1S(=O)(=O)NC(=O)Nc1nc(OC(F)F)cc(OC(F)F)n1`, the logP worked out at 3.49.

The compound `CC1=CC(=O)CC(C)(C)[C@@]1(O)/C=C/C(C)=C\C(=O)O` had a logP of 1.71.

`CC1(c2ccc(Oc3ccccc3)cc2)OC(=O)N(Nc2ccccc2)C1=O` (stereo not drawn) registered a logP of 4.78.

`C[C@@H](Oc1ccc(Oc2ccc(C(F)(F)F)cn2)cc1)C(=O)O` registered a logP of 3.21.

`CC(=NC#N)N(C)Cc1ccc(Cl)nc1` displayed a logP of 0.82.

On to `CC(C)N1C(=O)N(c2ccccc2)CSC1=NC(C)(C)C`, for which the logP came to 4.92.

Regarding `CCCC(=O)c1ccccc1`, the lipophilicity (logP) came to 2.68.

`CCN(CC)C(=O)C(C)Oc1cccc2ccccc12` (stereo not drawn) had a logP of 3.22.

The compound `CCOC(=O)C(C)Oc1ccc(Oc2ccc(C(F)(F)F)cn2)cc1` (stereo not drawn) had a logP of 3.9.

In turn, `CC(=O)Nc1cccnc1` came in with a logP of 0.38.

The compound `COC(=O)c1cc(Oc2ccc(Cl)cc2Cl)ccc1[N+](=O)[O-]` yielded a logP of 4.53.

As to `COC(=O)NCc1cc(/C(C)=N/OCc2cccc(C)n2)ccc1Cl`, the logP turned out to be 3.64.

In the case of `CO/N=C(/C(=O)OC)c1ccccc1CO/N=C(\C)c1cccc(C(F)(F)F)c1`, the logP came to 4.45.

`CCCN(CCOc1c(Cl)cc(Cl)cc1Cl)C(=O)n1ccnc1`: the logP turned out to be 4.02.

As for `CS(=O)(=O)c1ccc(C(=O)C2C(=O)CCCC2=O)c([N+](=O)[O-])c1`, the logP turned out to be 0.9.

The compound `CO/C=C(/C(=O)OC)c1ccccc1Oc1cc(Oc2ccccc2C#N)ncn1` displayed a logP of 2.53.

Consider `O=Cc1cccc(Oc2ccccc2)c1`, for which the logP was 3.32.

For the compound `O=[N+]([O-])c1c(Cl)c(Cl)cc(Cl)c1Cl`, the logP came to 4.28.
